Laboratory results from patent publication US9757375B2, “Compounds that inhibit human DNA ligases and methods of treating cancer” (University of Maryland, Baltimore, priority 2007, dated 2017).
Read-outs that look alike come from different tables or passages of the source. Marks after values point to notes of the source that are not given here. One block for each molecule: values may come before it.

Tests used:
[1] = system: MCF10A cells; experiment: MTT cell growth assay; assay type: cell-based, human; settings: for IC50: Homo sapiens, MCF-10A
Procedure: (§1) The activity of hits from the initial screen was further validated using the MTT assay. Briefly, MCF10A and HCT116 cells were seeded in 96 well plates at 300 and 1200 cells per well, respectively, and allowed to adhere overnight. The following day, serial dilutions of compounds in media were added to the cells in a final volume 200 μl. After incubation for 5 days, MTT reagent (3-(4,5-dimthylthiazol-2-yl)-2,5-diphenyltatrazolium) was added and incubation was continued for 4 h. Formazan crystals generated by reduction of the MTT reagent in mitochondria were solubilized with isopropanol prior to the measurement of absorbance at 560 nm wavelength in a plate reader.
To extend the results of the […] cell culture screening assay, a subset of compounds were tested in larger cultures. Different concentrations of Compounds 67 and 151 were added to asynchronous subconfluent populations of HCT116 and MCF10A cells. Asynchronous subconfluent populations of HCT116 and MCF10A cells were pre-treated with different concentrations of compound 64 prior to the addition of 3 aminobenzamide (2 mM) MMS (100 μM) or cis-platinum (1 μM). After incubation for 5 days, cell growth was measured by the MTT assay (16).

[2] = molecular target: T1, human DNA ligase III (Homo sapiens, UniProt P49916); experiment: High-throughput fluorescence-based DNA joining (ligation) assay; assay type: biochemical; settings: for inhibition at 100 µM: read-out: % of inhibition @ 100 μM (Helen's data) hLigIII
T1 sequence (P49916 1-862 isoform P49916-4): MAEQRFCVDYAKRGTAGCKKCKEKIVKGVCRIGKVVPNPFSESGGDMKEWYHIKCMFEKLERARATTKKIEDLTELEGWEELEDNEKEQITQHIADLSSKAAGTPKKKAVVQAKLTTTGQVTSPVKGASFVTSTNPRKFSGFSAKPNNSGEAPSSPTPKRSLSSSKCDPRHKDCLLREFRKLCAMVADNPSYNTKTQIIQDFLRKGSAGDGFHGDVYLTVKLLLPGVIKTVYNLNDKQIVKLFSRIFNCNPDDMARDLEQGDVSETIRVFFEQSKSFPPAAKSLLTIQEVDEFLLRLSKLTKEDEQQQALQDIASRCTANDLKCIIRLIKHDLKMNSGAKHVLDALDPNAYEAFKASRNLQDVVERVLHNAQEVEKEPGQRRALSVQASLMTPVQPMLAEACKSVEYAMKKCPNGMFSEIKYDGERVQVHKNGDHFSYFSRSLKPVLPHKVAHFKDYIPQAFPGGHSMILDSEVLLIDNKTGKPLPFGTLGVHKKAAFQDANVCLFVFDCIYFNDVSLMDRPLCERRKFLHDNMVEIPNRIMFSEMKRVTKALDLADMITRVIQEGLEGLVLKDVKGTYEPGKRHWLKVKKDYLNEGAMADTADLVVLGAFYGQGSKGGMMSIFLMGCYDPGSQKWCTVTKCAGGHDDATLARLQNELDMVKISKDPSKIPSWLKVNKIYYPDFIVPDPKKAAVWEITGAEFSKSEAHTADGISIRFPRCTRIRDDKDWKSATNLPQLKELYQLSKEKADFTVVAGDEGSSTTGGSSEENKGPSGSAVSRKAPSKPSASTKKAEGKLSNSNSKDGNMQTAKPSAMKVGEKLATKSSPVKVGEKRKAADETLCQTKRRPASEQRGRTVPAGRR
Excerpt: (§2) The method for screening compounds comprises testing the compound for the ability to inhibit human DNA ligases I, III and IV with a high throughput fluorescence-based ligation assay. In this assay, phosphodiester bond formation covalently links together two oligonucleotides, one of which is a fluorescent donor AF488 that is 11 nucleotides from the 3′ terminus and the other contains a fluorescence acceptor and quencher, BHQ1 that is 15 nucleotides from the 5′ terminus. When these oligonucleotides are present in separate duplexes and in the same nicked or intact duplex, there is no significant quenching of fluorescence because the donor and acceptor are too far apart. As single-strands neither the AF488 oligonucleotide nor the BHQ1 oligonucleotides have significant secondary structure. However, when these oligonucleotides are ligated together, the resultant single strand forms a stable hairpin structure, in which the AF488 and BHQ1 groups are very close together, resulting in efficient intra-molecular quenching of fluorescence. Thus, in the DNA joining assay, the DNA substrate is denatured after incubation with the DNA ligase and then renatured in the presence of a 20-fold excess of an oligonucleotide that is identical to the ligated strand containing the fluorescent door and acceptor except that it lacks these modifications. Using this assay, DNA joining, which results in reduced fluorescence at 518 nm, can be measured rapidly, quantitatively and with high-throughput using a fluorescence plate reader.
(§3) Applicants developed a novel high throughput fluorescence-based ligation assay by modifying the sequence of the oligos to optimize hairpin formation by the single strand ligated product of the high throughput fluorescence-based ligation assay of Chen et al (22). […] Compound stock solutions, which were 10 mM in 0.5% DMSO, were diluted in 0.5% DMSO. Human DNA ligases I and III were assayed with a nicked DNA substrate whereas as the substrate for human DNA ligase IV was two oligonucleotide duplexes with short complementary single strand ends.

[3] = molecular target: human DNA ligase IV (Homo sapiens, UniProt P49917); experiment: as above; assay type: biochemical; settings: 100 μM; for inhibition at 100 µM: read-out: % of inhibition @ 100 μM (Helen's data) hLigIV
human DNA ligase IV, sequence (P49917 whole entry): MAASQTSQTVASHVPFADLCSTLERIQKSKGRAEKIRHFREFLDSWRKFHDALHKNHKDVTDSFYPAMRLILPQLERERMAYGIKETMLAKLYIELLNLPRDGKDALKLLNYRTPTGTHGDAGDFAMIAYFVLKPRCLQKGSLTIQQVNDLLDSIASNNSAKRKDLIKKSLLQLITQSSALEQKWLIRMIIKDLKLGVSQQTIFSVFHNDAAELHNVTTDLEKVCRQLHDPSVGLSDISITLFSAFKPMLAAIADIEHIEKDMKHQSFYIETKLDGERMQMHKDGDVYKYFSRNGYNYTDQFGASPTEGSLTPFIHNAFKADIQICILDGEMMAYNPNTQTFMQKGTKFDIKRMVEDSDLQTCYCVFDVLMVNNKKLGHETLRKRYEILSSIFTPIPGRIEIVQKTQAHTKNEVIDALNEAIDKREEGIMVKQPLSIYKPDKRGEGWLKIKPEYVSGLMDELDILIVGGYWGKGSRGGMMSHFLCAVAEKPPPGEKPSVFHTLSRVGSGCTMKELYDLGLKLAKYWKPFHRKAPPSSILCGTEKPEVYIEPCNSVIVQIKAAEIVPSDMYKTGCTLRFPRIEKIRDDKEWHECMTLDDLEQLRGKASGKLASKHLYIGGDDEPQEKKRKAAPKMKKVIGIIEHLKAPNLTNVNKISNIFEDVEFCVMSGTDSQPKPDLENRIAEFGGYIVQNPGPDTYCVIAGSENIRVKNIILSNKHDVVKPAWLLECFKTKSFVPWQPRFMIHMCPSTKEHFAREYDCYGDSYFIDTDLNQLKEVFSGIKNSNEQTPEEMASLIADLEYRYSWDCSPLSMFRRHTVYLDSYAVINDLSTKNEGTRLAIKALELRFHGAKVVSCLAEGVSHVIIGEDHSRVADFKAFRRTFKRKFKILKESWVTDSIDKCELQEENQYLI
human DNA ligase IV, sequence (Q13426 whole entry partner): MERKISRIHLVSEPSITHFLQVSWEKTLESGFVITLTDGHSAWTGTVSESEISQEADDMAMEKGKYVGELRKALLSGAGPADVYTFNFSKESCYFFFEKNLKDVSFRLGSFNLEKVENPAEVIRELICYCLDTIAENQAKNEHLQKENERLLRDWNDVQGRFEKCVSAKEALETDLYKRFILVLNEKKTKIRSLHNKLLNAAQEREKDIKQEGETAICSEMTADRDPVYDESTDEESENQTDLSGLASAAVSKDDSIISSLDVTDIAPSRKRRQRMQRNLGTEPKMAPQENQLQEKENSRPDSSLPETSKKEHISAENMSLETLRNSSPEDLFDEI
Excerpt: as §2, §3

[4] = molecular target: T2, hLigI (Homo sapiens, UniProt P18858); experiment: as above; assay type: biochemical; settings: for inhibition at 100 µM: read-out: % of inhibition @ 100 μM (Helen's data) hLigI
T2 construct: made in house
T2 sequence (P18858 whole entry): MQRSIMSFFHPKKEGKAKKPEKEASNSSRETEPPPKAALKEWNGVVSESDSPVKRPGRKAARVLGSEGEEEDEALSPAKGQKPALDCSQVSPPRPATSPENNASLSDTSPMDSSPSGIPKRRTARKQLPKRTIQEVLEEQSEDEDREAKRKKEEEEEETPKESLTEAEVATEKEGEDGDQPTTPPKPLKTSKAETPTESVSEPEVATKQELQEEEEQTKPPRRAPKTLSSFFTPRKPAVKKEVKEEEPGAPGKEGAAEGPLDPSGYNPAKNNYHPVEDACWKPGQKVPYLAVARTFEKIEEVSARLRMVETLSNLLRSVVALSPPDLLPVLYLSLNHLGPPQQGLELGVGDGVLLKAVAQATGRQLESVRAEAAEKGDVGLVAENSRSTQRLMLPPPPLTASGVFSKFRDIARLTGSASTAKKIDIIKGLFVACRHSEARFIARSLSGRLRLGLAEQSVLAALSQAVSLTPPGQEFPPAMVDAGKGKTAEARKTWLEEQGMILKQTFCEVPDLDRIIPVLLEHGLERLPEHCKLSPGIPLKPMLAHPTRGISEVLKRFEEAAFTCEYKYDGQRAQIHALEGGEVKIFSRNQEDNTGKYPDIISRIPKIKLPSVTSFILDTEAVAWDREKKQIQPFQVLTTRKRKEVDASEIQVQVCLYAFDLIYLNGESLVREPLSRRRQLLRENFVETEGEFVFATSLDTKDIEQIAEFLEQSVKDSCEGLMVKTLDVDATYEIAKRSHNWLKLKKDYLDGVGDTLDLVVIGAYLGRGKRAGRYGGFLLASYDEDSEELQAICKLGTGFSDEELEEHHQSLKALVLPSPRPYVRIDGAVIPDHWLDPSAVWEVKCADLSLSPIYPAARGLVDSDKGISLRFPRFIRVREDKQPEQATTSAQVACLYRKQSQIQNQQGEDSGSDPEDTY
Procedure: Candidate ligase inhibitors identified by CADD were assayed for their ability to inhibit hLigI and T4 DNA ligase using a high-throughput, fluorescence energy transfer-based DNA joining assay (22). Duplicate reactions (30 μL) containing 10 pmol of nicked DNA substrate and either 0.25 pmol of hLigI or 10 units of T4 DNA ligase were incubated in the presence or absence of 100 μmol/L of the putative inhibitor. DNA binding by the candidate DNA ligase inhibitors was measured by displacement of ethidium bromide from DNA as previously described (30).
as §2, §3

[5] = system: MCF10A cells; experiment: Cell proliferation screen (SYBR Green, Biomek FX); assay type: cell-based, human; settings: 50 μM; percentage of values obtained with DMSO alone
Procedure: The ability of the compounds identified by CADD to inhibit proliferation of normal mammary epithelial MCF10A cells and colon carcinoma HCT116 cells was determined using a Biomek FX Laboratory Automation Workstation (Beckman Coulter, Inc., Fullerton, Calif.). On day 0, 20 μl of complete medium containing the appropriate number of cells (150-300) was plated per well of a 384-well tissue plate (Fisher Scientific, Hampton, N.H.) and incubated overnight at 37° C. with 5% CO2 and 90% humidity. Next day, day 1, compounds were prepared by serial dilution with complete medium to yield the concentration 100 μM, and 20 μl was added to each well containing 20 μl of medium and cells yielding the final concentration 50 μM in 40 μl volume. Plates were incubated for additional 3 days (days-2-5) until control cells (0.5% DMSO) reached ˜70-80% confluency. On day 6, 40 μl of lysis/detection solution containing 1.2% Igepal CA-630 (Sigma) and a 1:1000 dilution of SYBR Green I nucleic acid stain (Molecular Probes, Eugene, Oreg.) was added to each well. Following an overnight incubation at 37° C., total fluorescence was measured using a Fluorostar Galaxy plate reader with a 485 nm excitation filter and 520 nm emission filter set (BMG Labtech, Inc., Durham, N.C.). Data was exported to a custom program that determined growth inhibition by dividing each individual fluorescence value by the average of fluorescence values obtained with cells treated with DMSO alone.
The 192 human DNA ligase inhibitors were screened in parallel for effects on proliferation and the ability to potentiate the effects of several DNA damaging agents using two cell human lines, a colon cancer line HCT116 and a normal breast epithelial cell line MCF10A using a Biomek FX Laboratory Automation Workstation as described (23). The DNA damaging agents used, methyl methanesulfonate (MMS), camptothecin, cis-platinum, 3 aminobenzamide and ionizing radiation, are representatives of classes of agents used to treat cancer. Briefly, HCT116 and MCF10A cells were plated in 96 well plates such that the cultures were about 80% confluent after 5 days incubation. Compounds were added to the cultures at either 15 μM or 50 μM 1 day after plating. After incubation for 3 days, cell lysed in a solution containing 1.2% Igepal CA-630 and SYBR green that stains DNA (1:1000, Molecular Probes, Eugene, Oreg.). Subsequently, fluorescence was measured per well. The studies with DNA damaging agents were performed as follows. […] For ionizing radiation, cells were pre-incubated with the compounds at 50 μM for 1 hour prior to exposure to 2 gray of ionizing radiation. Cultures were incubated for 3 days and then treated as above.

[6] = system: MCF10A cells; experiment: Screen for potentiation of DNA damaging agents (MMS, camptothecin, cis-platinum, 3 aminobenzamide, ionizing radiation); assay type: cell-based, human; settings: compound alone vs combination with MMS (100 μM); 1 = no sensitization
Excerpt: The 192 human DNA ligase inhibitors were screened in parallel for effects on proliferation and the ability to potentiate the effects of several DNA damaging agents using two cell human lines, a colon cancer line HCT116 and a normal breast epithelial cell line MCF10A using a Biomek FX Laboratory Automation Workstation as described (23). The DNA damaging agents used, methyl methanesulfonate (MMS), camptothecin, cis-platinum, 3 aminobenzamide and ionizing radiation, are representatives of classes of agents used to treat cancer. Briefly, HCT116 and MCF10A cells were plated in 96 well plates such that the cultures were about 80% confluent after 5 days incubation. Compounds were added to the cultures at either 15 μM or 50 μM 1 day after plating. After incubation for 3 days, cell lysed in a solution containing 1.2% Igepal CA-630 and SYBR green that stains DNA (1:1000, Molecular Probes, Eugene, Oreg.). Subsequently, fluorescence was measured per well. The studies with DNA damaging agents were performed as follows. […] Cultures were incubated for 3 days and then treated as above.

[7] = system: HCT116 cells; experiment: MTT cell growth assay; assay type: cell-based, human; settings: Homo sapiens, HCT-116
Procedure: as §1
After incubation for 5 days, cell growth was measured by the MTT assay (16).

[8] = sections 'high concentrations (~50 μM)' and 'active in vitro that decreased cell growth', same figures given in μM elsewhere in Table 6, read-out: IC50 MCF10A (head without unit)

inhibition at 100 µM [2]: 24% | inhibition at 100 µM [3]: < 20% | inhibition at 100 µM ([4]; 100 μM): 21%
Structure (SMILES): O=c1[nH]cc(/C=N/Nc2ncnc3[nH]cnc23)c(=O)[nH]1 [Compound 208]
IC50 ([1]; cell growth, compound alone, read-out: IC50 (μM) MCF10A): 40 µM | IC50 [1, 8]: 40 µM

inhibition of hLigI (DNA ligase I), in words ([4]; in vitro screen, 100 μmol/L, the 15 hLigI inhibitors inhibited by >50%): inhibited hLigI
Structure (SMILES): O=C1N/C(=N\c2ccccc2)S/C1=C/c1ccc(-c2cccc(C(=O)O)c2)o1 [Compound 202]
Growth_Inh % (50 μM) MCF10A [5]: 50%

% of inhibition @ 100 μM (Helen's data) hLigIII ([2]; 100 μM): NI (NI- no inhibition) | % of inhibition @ 100 μM (Helen's data) hLigIV [3]: NI (NI- no inhibition) | % of inhibition @ 100 μM (Helen's data) hLigI ([4]; 100 μM): NI (NI- no inhibition)
Structure (SMILES): CC(C(=O)Nc1cccc(C(=O)O)c1)N(C)S(=O)(=O)c1ccccc1 (stereo not drawn) [Compound 199]
inhibition of cell proliferation of MCF10A at 50 μM (MTT) ([1]; 50 μM, numbers printed under MCF10A in r92-r106: 79, 124, 130, 193, 197, 198, 199 (30%), 214, 221): 199^t (30%)

inhibition at 100 µM [2]: < 20% | inhibition at 100 µM [3]: < 20% | IC50 ([7]; cell growth, compound alone, read-out: IC50 (μM) HCT116): 50 µM | IC50 ([7]; sections 'high concentrations (~50 μM)' and 'active in vitro that decreased cell growth', same figures given in μM elsewhere in Table 6, read-out: IC50 HCT116 (head without unit)): ≥ 50 µM | inhibition at 100 µM ([4]; 100 μM): < 20%
Structure (SMILES): C=CCN1C(=O)/C(=C\c2ccccc2C(=O)O)SC1=S [Compound 159]
MMS: Ratios of IC50 MCF10A [6]: Ni | IC50 [1, 8]: > 50 µM
